Results taken from patent US20040186022A1, “Enhanced herbicides” (priority 1999, published 2004).

How the values were obtained:
[1] = tested on: Kentucky bluegrass, velvetleaf, foxtail, tomato, potato and snapbeans
Source text: (§1) The herbicides were applied in the “spray to drip” amount or at a calibrated 20-60 gallons/acre. “Spray to drip” is an uncalibrated application of fluid to foliage, where sufficient spray volume is used to sufficiently saturate the foliage surface until excess fluid begins to drip from the foliage.

[2] = tested on: 60 G/a: lambsquarter, pigweed, velvetleaf and foxtail; spray to drip: velvetleaf and foxtail; assay: Herbicidal activity of caprylic acid combined with salts of succinate +/- sodium salicylate; type: in vivo
Source text: as §1

[3] = tested on: 60 G/a: black nightshade, redroot pigweed, lambsquarter, foxtail, velvetleaf and snapbeans; spray to drip: redroot pigweed, lambsquarter, velvetleaf and …; assay: Efficacy of 2% caprylic with succinic or ammonium succinate in an emulsification system (Emsorb 6900); type: in vivo
Source text: as §1

[4] = tested on: young potato plants; assay: Effects of desiccants and desiccant combinations with other compounds on young potato plants; type: in vivo; set-up: All evaluations (total score): scale not given here
Source text: as §1

[5] = tested on: lambsquarter, velvetleaf, foxtail, nutsedge and potatoes; assay: Succinic acid enhancement of oleic acid/sodium salicylate herbicidal activity (spray to drip); type: in vivo
Source text: as §1

[6] = tested on: 60 G/a: lambsquarter, foxtail and velvetleaf; spray to drip: snapbeans, corn and tomatoes; assay: Succinic acid enhancement of oleic acid/sodium salicylate herbicidal activity (60 G/a and spray to drip); type: in vivo
Source text: as §1

[7] = tested on: plants; assay: Herbicidal enhancement of pelargonic by succinic acid and diammonium succinate; type: in vivo
Source text: as §1

[8] = tested on: navy dry beans (navy Vista); assay: Synergistic interactions of succinic acid and di-ammonium succinate with herbicidal compounds, navy dry beans; type: in vivo, dry bean (navy); settings: for Injury rating, average per plot: scale 1-5
Source text: as §1

[9] = tested on: black beans (dry bean variety T39); assay: Synergistic interactions of succinic acid and di-ammonium succinate with other herbicidal compounds, dry beans (black); type: in vivo; settings: for Injury rating, average per plot: scale 1-5
Source text: as §1

[10] = tested on: 60 G/a: black nightshade, redroot pigweed, foxtail, lambsquarter and snapbeans; spray to drip: redroot pigweed, velvetleaf, nutsedge and foxtail; assay: Efficacy of 3% caprylic with succinic or ammonium succinate in an emulsification system (Emsorb 6900); type: in vivo
Source text: as §1

[11] = tested on: 60 G/a: velvetleaf, black nightshade, redroot pigweed, foxtail and snapbeans; spray to drip: black nightshade, velvetleaf, foxtail and snapbeans; assay: Efficacy of 1.5% succinic acid with oleic, caprylic or pelargonic acid in an emulsification system (Emsorb 6900); type: in vivo; set-up: Injury rating, total score for 2 evaluation, Spray to drip / Injury rating, total score for 2 evaluation, Total Rating: scale not given here
Source text: as §1

[12] = tested on: plants; assay: Herbicidal activity: comparison of caprylic, pelargonic and an equimolar mixture of caprylic and pelargonic acids; type: in vivo
Source text: The herbicides were applied in the “spray to drip” amount or at a calibrated 20-60 gallons/acre. “Spray to drip” is an uncalibrated application of fluid to foliage, where sufficient spray volume is used to sufficiently saturate the foliage surface until excess fluid begins to drip from the foliage. In general, about 5 to 200 gallons/acre, preferably 20-100 gallons/acre can be effective.

[13] = Measurement of pH values for test desiccants (Example 56); type: physicochemical
[14] = tested on: soybeans; assay: Synergy comparisons of various organic acids with caprylic acid, testing soybeans; type: in vivo; settings: 3 days after a single foliar application, average of 2 sites, soybean Stine 2250
Source text: as §1

[15] = Measurement of pH values for test desiccants (Example 55); type: physicochemical
[16] = 60 G/a, rating 1-5 per pot, 1% Emsorb, 0.3% Hasten
[17] = rating 1 to 5, 5 = complete desiccation of all plants

SMILES: O=C([O-])c1ccccc1O.[Na+] [1.5% sodium salicylate, sodium salicylate]
- Injury rating, Spray to drip ([1]; rating 1-5 per pot, three evaluations, 30% acetone, 0.3% Sylgard 309): 56.2
- Injury rating, Average rating per pot ([1]; scale 1-5, spray to drip): 3.51

SMILES: CCCCCCCC(=O)O [2% caprylic, caprylic acid]
- Total Injury ratings, Total score ([2]; 60 G/a plus spray to drip): 69.2
- Total injury ratings, 60 G/a ([2]; 60 G/a, 8 pots/treatment, 2 evaluations, rating 1-5 per pot, 1% Emsorb 6900): 61
- Total injury ratings, Spray to drip ([2]; spray to drip, 2 pots/treatment, velvetleaf and foxtail, 1 evaluation): 8.2
- Injury rating, total score for 2 evaluations, Total Rating ([3]; 60 G/a plus spray to drip): 123.4
- Injury rating, total score for 2 evaluations, 60 G/a [3, 16]: 73.6
- Average rating per pot ([3]; scale 1-5): 4.11
- Injury rating, total score for 2 evaluations, Spray to drip ([3]; spray to drip): 49.8
- Injury ratings of treated plants, day 1 ([4]; 1 day after application, 6 = complete desiccation): 5
- Injury ratings of treated plants, day 3 ([4]; 3 days after application, 6 = complete desiccation): 5
- Injury ratings of treated plants, day 6 ([4]; 6 days after application, 6 = complete desiccation): 5
- Injury ratings of treated plants, day 17 ([4]; 17 days after application, 6 = complete desiccation): 5
- Injury ratings of treated plants, day 22 ([4]; 22 days after application, 6 = complete desiccation): 5.5
- Injury ratings of treated plants, day 27 ([4]; 27 days after application, 6 = complete desiccation): 5.5
- Injury ratings of treated plants, […] ([4]; […] after application, 6 = complete desiccation): 3.5
- All evaluations (total score) ([4]; total of all evaluation times): 34.5

SMILES: CCCCCCCC/C=C\CCCCCCCC(=O)O [2% oleic acid, oleic acid]
- Total injury rating (sum over pots and evaluations) ([5]; rating 1-5 per pot, two evaluations, 50% acetone, 0.3% Sylgard 309): 26.4
- Injury rating, Average rating per pot ([5]; scale 1-5, spray to drip): 2.2
- Total Injury rating, Total ([6]; 60 G/a plus spray to drip): 45.8
- Total Injury rating, 60 G/a ([6]; 60 G/a, lambsquarter, foxtail and velvetleaf, rating 1-5 per pot, two evaluations): 23.5
- Average rating per pot ([6]; scale 1-5, 60 G/a and spray to drip): 1.91

SMILES: CCCCCCCCC(=O)O [2.5% pelargonic]
- Injury ratings based on 2 independent evaluations, 40 G/a ([7]; 40 G/a: lambsquarter, velvetleaf and green foxtail, each pot rated 1 to 5): 79.2
- Injury ratings based on 2 independent evaluations, 60 G/a ([7]; 60 G/a: pigweed, chickweed, crabgrass, green foxtail, velvetleaf, lambsquarter and wheat, each pot rated 1 to 5): 102.2
- Injury ratings based on 2 independent evaluations, Spray to drip ([7]; Spray to drip: nutsedge, velvetleaf, green foxtail, giant foxtail and barnyard grass, each pot rated 1 to 5): 53.8
- Average rating per pot [7, 17]: 4.36

SMILES: CCCCCCCC(=O)O [3% caprylic, caprylic acid]
- Injury rating, average per plot ([8]; Day 1, one application at 40 G/acre, treatments 1-4, 9-11 in Emsorb 6900/mineral oil/Hasten, 5-8, 12-14 in 0.3% Sylgard 309): 3.5
- Injury rating, average per plot ([8]; Day 2): 3.93
- Injury rating, average per plot ([8]; Day 3): 3.93
- Injury rating, average per plot ([8]; Day 4): 4
- % desiccation (Day 12), foliage ([8]; Day 12, foliage): 50%
- % desiccation (Day 12), pods ([8]; Day 12, pods): 80%
- % desiccation (Day 12), vines ([8]; Day 12, vines): 10%
- Injury rating, average per plot ([8]; Day 12): 4.2
- Injury rating, average per plot ([9]; Day 2, one application at 40 G/acre, treatments 1-4, 9-11 in Emsorb 6900/mineral oil/Hasten, 5-8, 12-14 in 0.3% Sylgard 309): 4
- % desiccation (Day 12), foliage ([9]; Day 12, foliage): 80%
- % desiccation (Day 12), pods ([9]; Day 12, pods): 95%
- % desiccation (Day 12), vines ([9]; Day 12, vines): 92%
- Injury rating, average per plot ([9]; Day 12): 4.73
- Injury rating, total score for 2 evaluations, Total Rating ([10]; 60 G/a plus spray to drip): 178.4
- Injury rating, total score for 2 evaluations, 60 G/a [10, 16]: 142
- Average rating per pot ([10]; scale 1-5): 4.05
- Injury rating, total score for 2 evaluations, Spray to drip ([10]; spray to drip): 36.6
- Injury rating, total score for 2 evaluation, Total Rating ([11]; 60 G/a plus spray to drip): 123.5
- Injury rating, total score for 2 evaluation, 60 G/a [11, 16]: 88.1
- Average rating per pot ([11]; scale 1-5): 4.41
- Injury rating, total score for 2 evaluation, Spray to drip ([11]; spray to drip): 35.4
- Injury ratings based on 2 independent evaluations, 40 G/acre ([12]; 40 G/acre: chickweed, redroot pigweed, lambsquarter and green foxtail, each pot rated 1 to 5): 40.8
- Injury ratings based on 2 independent evaluations, 60 G/acre ([12]; 60 G/acre: chickweed, redroot pigweed, lambsquarter, green foxtail, crabgrass and wheat, each pot rated 1 to 5): 51.6
- Average rating per pot [12, 17]: 4.16

SMILES: NCCC(=O)O [Beta-Alanine (0.5%)]
- pH Value [13]: 6.65

SMILES: O=C(O)C(O)C(O)C(=O)O [L-Tartaric Acid (0.5%)]
- Foliage Affected (%) [14]: 0%
- Overall Effect ([14]; 5 equals profound desiccation): 0
- pH Value [15]: 1.52
- pH Value [13]: 1.72
